Values joined by “and” are separate entries in the source; they are usually repeats but may differ in a detail not shown here. Equal entries are not always repeated. Where two headings read alike, the source gives them in different places.
Experiments:
Microglial cells = assay: Dose response inhibition of NO release from microglia, 0.75-200 μM (Example 8); format: cell-based
Protocol: This experiment was designed to determine dose response inhibition of NO release from microglia by bis- and tris-dihydroxyaryl compounds when stimulated with LPS/IFNγ. […] This experiment is designed to determine a dose response for various bis- and tris-dihydroxyaryl compounds. Microglial cells were plated into 96 well plates at 1×10^5 cells/ml. […] The doses tested were: 0.75 μM, 1.56 μM, 3.125 μM, 6.25 μM, 12.5 μM, 25 μM, 50 μM, 100 μM and 200 μM. Nitric oxide release was measured after 48 hours using the Griess reaction.

microglia = assay: Ranking of NO release inhibition (Example 12); format: cell-based; settings: Microglia, ranking table
Text: The bis- and tris-dihydroxyaryl compounds were ranked in order of effectiveness for the inhibition of NO release as set out in Table 8.

[1] = dose 0.75 μM, 48 hours, single replicates
[2] = dose 1.56 μM, 48 hours, single replicates
[3] = dose 3.125 μM, 48 hours, single replicates
[4] = dose 6.25 μM, 48 hours, single replicates
[5] = dose 12.5 μM, 48 hours, single replicates
[6] = dose 25 μM, 48 hours, single replicates
[7] = dose 50 μM, 48 hours, single replicates
[8] = dose 100 μM, 48 hours, single replicates
[9] = dose 200 μM, 48 hours, single replicates

Compound `O=C(NCc1ccc(O)c(O)c1)C(=Cc1ccc(O)c(O)c1)NC(=O)c1ccc(O)c(O)c1` [Compound 21, α-(3,4-dihydroxybenzamido)-3,4-dihydroxycinnamic acid 3,4-dihydroxybenzyl amide] has an inhibition at 6.25 µM (Microglial cells; Microglia, 48 h, dose 6.25 μM, 48 hours, read-out: Avg % Inhibition) of -1.84%, an inhibition at 12.5 µM (Microglial cells; Microglia, 48 h, dose 12.5 μM, 48 hours, read-out: Avg % Inhibition) of 5% and an inhibition at 25 µM (Microglial cells; Microglia, 48 h, dose 25 μM, 48 hours, read-out: Avg % Inhibition) of 2.9%. For the same compound, the inhibition at 50 µM (Microglial cells; Microglia, 48 h, dose 50 μM, 48 hours, read-out: Avg % Inhibition) was 13.7%, the inhibition at 50 µM (Microglial cells; Microglia, 48 h, dose 50 μM, 48 hours, single replicates, read-out: % inhibition) was 16.3% and the inhibition at 100 µM (Microglial cells; Microglia, 48 h, dose 100 μM, 48 hours, read-out: Avg % Inhibition) was 33.7%. It also gave an inhibition at 100 µM (Microglial cells; Microglia, 48 h, dose 100 μM, 48 hours, single replicates, read-out: % inhibition) of 33.7%, an inhibition at 200 µM (Microglial cells; Microglia, 48 h, dose 200 μM, 48 hours, read-out: Avg % Inhibition) of 69% and an inhibition at 200 µM (Microglial cells; Microglia, 48 h, dose 200 μM, 48 hours, single replicates, read-out: % inhibition) of 67.6%. For the same compound, the “μM NO release Avg” value (Microglial cells; dose 0.75 μM, 48 hours) was 22.865 µM, the “% inhibition” value (Microglial cells; [1]) was −16.05% and −17.63% and −12.89% and the “OD values (printed under head μM NO release)” value (Microglial cells; [1]) was 0.195 and 0.199 and 0.201. The “μM NO release” value (Microglial cells; [1]) was 22.344 µM and 22.969 µM and 23.281 µM, the “μM NO release Avg” value (Microglial cells; dose 1.56 μM, 48 hours) was 21.094 µM and the “% inhibition” value (Microglial cells; [2]) was −8.16% and −9.74% and −1.84%. The “OD values (printed under head μM NO release)” value (Microglial cells; [2]) was 0.181 and 0.189 and 0.191, the “μM NO release” value (Microglial cells; [2]) was 20.156 µM and 21.406 µM and 21.719 µM and the “μM NO release Avg” value (Microglial cells; dose 3.125 μM, 48 hours) was 20.990 µM. The “% inhibition” value (Microglial cells; [3]) was −4.21% and −8.16% and −5.79%, the “OD values (printed under head μM NO release)” value (Microglial cells; [3]) was 0.186 and 0.184 and 0.189 and the “μM NO release” value (Microglial cells; [3]) was 20.938 µM and 20.625 µM and 21.406 µM. For the same compound, the “μM NO release Avg” value (Microglial cells; dose 6.25 μM, 48 hours) was 20.156 µM, the “% inhibition” value (Microglial cells; [4]) was 2.89% and −3.42% and the “OD values (printed under head μM NO release)” value (Microglial cells; [4]) was 0.183 and 0.175 and 0.185. The “μM NO release” value (Microglial cells; [4]) was 20.469 µM and 19.219 µM and 20.781 µM, the “μM NO release Avg” value (Microglial cells; dose 12.5 μM, 48 hours) was 18.802 µM and the “% inhibition” value (Microglial cells; [5]) was 5.26% and −4.21% and 13.95%. For the same compound, the “OD values (printed under head μM NO release)” value (Microglial cells; [5]) was 0.161 and 0.172 and 0.184, the “μM NO release” value (Microglial cells; [5]) was 17.031 µM and 18.750 µM and 20.625 µM and the “μM NO release Avg” value (Microglial cells; dose 25 μM, 48 hours) was 19.219 µM. The “% inhibition” value (Microglial cells; [6]) was 7.63% and 1.32% and −0.26%, the “OD values (printed under head μM NO release)” value (Microglial cells; [6]) was 0.179 and 0.169 and 0.177 and the “μM NO release” value (Microglial cells; [6]) was 19.844 µM and 18.281 µM and 19.531 µM. For the same compound, the “μM NO release Avg” value (Microglial cells; dose 50 μM, 48 hours) was 17.083 µM, the “% inhibition” value (Microglial cells; [7]) was 10.79% and 13.95% and the “OD values (printed under head μM NO release)” value (Microglial cells; [7]) was 0.161 and 0.158 and 0.165. The “μM NO release” value (Microglial cells; [7]) was 17.031 µM and 16.563 µM and 17.656 µM, the “μM NO release Avg” value (Microglial cells; dose 100 μM, 48 hours) was 13.125 µM and the “OD values (printed under head μM NO release)” value (Microglial cells; [8]) was 0.136. The “μM NO release” value (Microglial cells; [8]) was 13.125 µM, the “Avg % Inhibition” value (Microglial cells; dose 200 μM, 48 hours) was 69.211% and the “μM NO release Avg” value (Microglial cells; dose 200 μM, 48 hours) was 6.094 µM. For the same compound, the “% inhibition” value (Microglial cells; [9]) was 68.42% and 71.58%, the “OD values (printed under head μM NO release)” value (Microglial cells; [9]) was 0.087 and 0.093 and 0.092 and the “μM NO release” value (Microglial cells; [9]) was 5.625 µM and 6.41 µM. For the same compound, the “inhibition of NO release, in words” value (Microglial cells; dose response 0.75-200 μM) was “effective inhibitors of NO release” and the inhibition at 50 µM (microglia) was 18%.
